Experimental data reported in patent publication US10227312B2, “Glucosylceramide synthase inhibitors for the treatment of diseases” (BIOMARIN PHARMACEUTICAL INC., priority 2015, dated 2019).

Legend:
[1] = target: glucosylceramide synthase (GCS) (Canis lupus familiaris, UniProt A0A8I3MXG6); experiment: GCS Enzymatic Assay (MDCK lysates); assay type: biochemical, canine; conditions: MDCK cell lysate, C6-NBD-Ceramide, 37° C. for 1 hour, LC/MS; read-out: Assay 1 (Enzyme Assay; MDCK lysates) IC50
Experimental: Madin-Darby canine kidney (MDCK) cell lysate was prepared using M-PER Mammalian Protein Extraction Reagent (Thermal Scientific) in the presence of a protease inhibitor cocktail (Roche). Protein concentration was determined using BCA assay kit (Pierce). […] 0.1% DMSO was used as mock treatment or control. The reaction was terminated by adding 100 μL acetonitrile solution and subjected to LC/MS analysis.
The quantitative analysis of NBD-Ceramide and glucosylceramide was performed on a Shimadzu ultra-fast liquid chromatography (Shimadzu, Japan) coupled with API 4000 triple quadrupole mass spectrometer (Applied Biosystems, Concord, Ontario, Canada). Sample separation was conducted on a Waters Xbridge™ BEH130 C18, 100 mm×4.6 mm i.d, 3.5 μm (Milford, Mass., USA). The mobile phase consisted of water and acetonitrile supplemented with 0.1% formic acid (v/v). The flow rate was 1.0 mL/min. The initial mobile phase was 20% acetonitrile and was ramped in a linear fashion to 50% acetonitrile in 0.4 min. From 0.4 to 1.5 min, the gradient was ramped to 98% acetonitrile, and then was held at […] until 8.0 min. Acetonitrile was reset to 20% in 1.5 min, and maintained until 10.0 min. The total run time was 10.0 min. The MS/MS detection was performed in ESI positive mode. […] The cell lysate was diluted with equal volume of acetonitrile. Aliquots of 50 μL diluted samples were added to 1.5 mL tubes, and 100 μL of acetonitrile containing internal standard (100 ng/mL tolbutamide) were added for protein precipitation. The mixture were vortexed and then centrifuged at 13000 rpm for 10 min. 70 μL of supernatant were mixed with 140 μL of H2O and the final solution were injected for LC/MS/MS analysis and IC50's and/or percent inhibitions calculated.

K562 cells = experiment: K562 Cell-Based Assay; conditions: Homo sapiens, NBD-Ceramide, LCMS, read-out: Assay 2 (Cellular Assay; K562 cells) IC50
Experimental: This assay was modified based on the study by Gupta et al. (J. Lipid Res. 2010, 51, 866). K562 cells were seeded into 12-well plates at 3×10^5 cells/well/mL in RPMI-1640 medium with 5% FBS and incubated at 37° C. for 24 h. One μL of a compound described herein at desired concentration (10 mM, 1 mM, 0.1 mM, 0.01 mM, 0.001 mM and 0.0001 mM in DMSO) or DMSO was added into the corresponding well and mixed. Cells were incubated at 37° C. for 4 h. Then 100 μL of RPMI-1640 medium containing 110 μM of NBD-Ceramide, 11% BSA, 5% FBS, and corresponding concentration of a compound described herein was added into each well and mixed. Cells were incubated for additional 0.5 h at 37° C., followed by washing the cells with ice-cold PBS (pH 7.4) twice with centrifugation and resuspended with 50 μL cold PBS+1% Triton X-100. The cell lysate was sonicated for 15 min before adding equal volume of methanol for LCMS analysis. A small aliquot of cell lysate was used to determine protein concentration by BCA assay kit. The HPLC equipment and methods used in Assay 1 were used in this assay as well and IC50's were calculated.

Chain of glucosylceramide synthase (GCS) (A0A8I3MXG6 1-394): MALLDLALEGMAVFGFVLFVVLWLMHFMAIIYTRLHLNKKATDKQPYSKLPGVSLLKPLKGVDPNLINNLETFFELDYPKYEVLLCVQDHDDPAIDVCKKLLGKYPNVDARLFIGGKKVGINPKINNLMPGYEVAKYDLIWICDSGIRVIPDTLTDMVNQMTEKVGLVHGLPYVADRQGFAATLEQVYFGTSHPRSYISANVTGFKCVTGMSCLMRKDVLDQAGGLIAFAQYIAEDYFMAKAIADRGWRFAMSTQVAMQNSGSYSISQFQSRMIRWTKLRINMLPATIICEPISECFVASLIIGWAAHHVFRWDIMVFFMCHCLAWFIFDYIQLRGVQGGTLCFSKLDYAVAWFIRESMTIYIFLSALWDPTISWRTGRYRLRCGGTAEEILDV

Row | Structure (SMILES) | IC50 [1] [nM] | IC50 (K562 cells) [nM]
1 | O=C(N[C@H](CN1CCCC1)[C@H](O)c1ccc(OC2CC2)c(F)c1)C1=NCCc2cc(-c3ccc(F)cc3)ccc21 [Example 38, N-((1R,2R)-1-(4-cyclopropoxy-3-fluorophenyl)-1-hydroxy-3-(pyrrolidin-1-yl)propan-2-yl)-6-(4-fluorophenyl)-3,4-dihydroisoquinoline-1-carboxamide] | 10 to 100 | ≤ 10
2 | CN(C(=O)C1=NCCc2cc(-c3ccc(F)cc3)ccc21)[C@H](CN1CCCC1)[C@H](O)c1ccc(OC2CC2)c(Cl)c1 [Example 39, N-((1R,2R)-1-(3-chloro-4-cyclopropoxyphenyl)-1-hydroxy-3-(pyrrolidin-1-yl)propan-2-yl)-6-(4-fluorophenyl)-N-methyl-3,4-dihydroisoquinoline-1-carboxamide] | 10 to 100 | ≤ 10
3 | O=C(N[C@H](CN1CCCC1)[C@H](O)c1ccc(OC2CC2)cc1)C1=NOCc2c1ccc1sc(Cl)cc21 [Example 44, 8-chloro-N-((1R,2R)-1-(4-cyclopropoxyphenyl)-1-hydroxy-3-(pyrrolidin-1-yl)propan-2-yl)-1H-thieno[3′,2′:3,4]benzo[1,2-d][1,2]oxazine-4-carboxamide] | 10 to 100 | ≤ 10
4 | O=C(N[C@H](CN1CCCC1)[C@H](O)c1ccc(OC2CC2)c(Cl)c1)C1=NOCc2cc(OCC3CCCCC3)ccc21 [Example 45, N-((1R,2R)-1-(3-chloro-4-cyclopropoxyphenyl)-1-hydroxy-3-(pyrrolidin-1-yl)propan-2-yl)-7-(cyclohexylmethoxy)-1H-benzo[d][1,2]oxazine-4-carboxamide] | < 10 | 10 to 100
5 | Cn1ncc2ccc3c(c21)CON=C3C(=O)N[C@H](CN1CCCC1)[C@H](O)c1ccc(OC2CC2)c(F)c1 [Example 46, N-((1R,2R)-1-(4-cyclopropoxy-3-fluorophenyl)-1-hydroxy-3-(pyrrolidin-1-yl)propan-2-yl)-1-methyl-1,9-dihydro[1,2]oxazino[4,5-g]indazole-6-carboxamide] | < 10 | ≤ 10
6 | O=C(N[C@H](CN1CCCC1)[C@H](O)c1ccc(OC2CC2)c(F)c1)C1=NOCc2c1ccc1cc(Cl)sc21 [Example 47, 2-chloro-N-((1R,2R)-1-(4-cyclopropoxy-3-fluorophenyl)-1-hydroxy-3-(pyrrolidin-1-yl)propan-2-yl)-9H-thieno[2′,3′:3,4]benzo[1,2-d][1,2]oxazine-6-carboxamide] | < 10 | ≤ 10
